The values that follow are results of earlier work, collected in US20030206958A1, “Chitosan biopolymer for the topical delivery of active agents” (priority 2002, published 2003).

In the case of `CC1=C(/C=C/C(C)=C/C=C/C(C)=C/C(=O)O)C(C)(C)CCC1` [tretinoin, all-trans retinoic acid], for the setting “topical (Gilchrest, 1997)”, the Patients with irritation is listed as 90 % of patients. Further, the “Patients discontinuing treatment because of irritation” value (topical (Stam-Posthuma et al., 1998)) is on record as ~50 % of patients.
